In ChEMBL document CHEMBL4406923, “New Potent DOT1L Inhibitors for in Vivo Evaluation in Mouse” (ACS Med Chem Lett, 2019):
Active and inactive are the calls of the source. The rule behind the calls is not given here.

Molecular target: T1, Histone-arginine methyltransferase CARM1 (Homo sapiens) (UniProt Q86X55)
T1 sequence (whole entry): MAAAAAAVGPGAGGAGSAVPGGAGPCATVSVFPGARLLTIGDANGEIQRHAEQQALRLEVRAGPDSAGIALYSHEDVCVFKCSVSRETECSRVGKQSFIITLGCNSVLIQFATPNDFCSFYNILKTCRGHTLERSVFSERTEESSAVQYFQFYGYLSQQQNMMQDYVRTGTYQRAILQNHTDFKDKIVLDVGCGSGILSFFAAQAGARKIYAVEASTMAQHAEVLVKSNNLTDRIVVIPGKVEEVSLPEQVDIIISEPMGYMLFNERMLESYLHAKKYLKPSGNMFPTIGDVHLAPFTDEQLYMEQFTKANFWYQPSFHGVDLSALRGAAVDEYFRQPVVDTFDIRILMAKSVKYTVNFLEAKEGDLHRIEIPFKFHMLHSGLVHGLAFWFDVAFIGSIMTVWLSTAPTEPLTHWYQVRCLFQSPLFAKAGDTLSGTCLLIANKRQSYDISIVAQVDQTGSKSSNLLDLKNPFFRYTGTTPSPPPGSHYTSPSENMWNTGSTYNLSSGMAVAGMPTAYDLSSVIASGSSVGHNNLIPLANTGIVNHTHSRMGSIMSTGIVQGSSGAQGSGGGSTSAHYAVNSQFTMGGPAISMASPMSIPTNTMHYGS
Experiment: Inhibition of CARM1 (unknown origin) at <5 uM using histone H3 peptide (1 to 21) as substrate in presence of co-factor SAM by LC-MS analysis

COc1nc(Nc2cc(S(C)(=O)=O)ccc2N[C@@H](c2cccc3c2OC(F)(F)O3)c2ncccc2Cl)nc(N2CCNCC2)n1
inhibition: inactive
